The results in this text go back to patent US20240116986A1, “FUSION PEPTIDES CONTAINING DIMERIC ALPHA-HELICES, PEPTIDE-MOLECULARCONJUGATES CONTAINING THE SAME AND NUCLEIC ACID DELIVERY COMPOSITIONSCONTAINING THE SAME” (Artprobio Co., Ltd., priority 2022, published 2024).

Read-outs that look alike come from different tables or passages of the source. Some results are limits rather than exact numbers.

Assay [1] concerns ssDNA PolyT200. Put plainly: EMSA with ssDNA PolyT200. In kind it is binding. As to the method:
The peptide-molecule conjugates of Examples 16, 17 and 18 (Glc2-AA-U2, Glc2-AA-U4, Glc2-AA-U6) were dispersed in distilled water. […] After preparing the mixtures of the peptide-molecule conjugates of Examples 16, 17 and 18 (Glc2-AA-U2, Glc2-AA-U4, Glc2-AA-U6) and the ssDNA PolyT200 (5 μL) at the nucleobase ratios described above, they were analyzed by EMSA.
The aqueous solution of the peptide-molecule conjugate of Example 19 (Glc2-AA-U8) was sonicated for 5 minutes or heated at 90° C. for 5 minutes, respectively. The heated peptide-molecule conjugate was indicated by ‘heat’.
The mixtures prepared by mixing the peptide-molecule conjugate of Example 19 (Glc2-AA-U8) aqueous solution (sonicated or heated) and ssDNA PolyT200 (5 μL) at nucleobase ratios of 20, 30 or 40 were analyzed by EMSA.
(In general: In EMSA bound probe runs differently from free probe, usually more slowly.)

Assay [2] has as its system EGFP mRNA. Put plainly: EMSA of nanostructure formation with EGFP mRNA. In kind it is binding. As to the method:
When a nanostructure was formed through self-assembly by reacting a peptide-molecule conjugate (SAB) with a nucleic acid material (dsDNA or mRNA), agarose gel EMSA was conducted to measure their interactions, binding ratio, stability, etc.
First, the nucleic acid material of a fixed concentration (100 fmol mRNA) was reacted with the peptide-molecule conjugate (SAB) of various concentrations. Immediately before mixing with the nucleic acid material, the peptide-molecule conjugate (SAB) was sonicated for 5 minutes to prevent self-aggregation. The sonicated peptide-molecule conjugate (SAB, 5 μL) was added to the nucleic acid material ([…]) and a nanostructure was prepared by adding distilled water. The sample was prepared by snap cooling. Specifically, after heating at 70° C. for 10 minutes and snap-cooling on ice, the prepared sample was stored at room temperature. The stored sample was mixed with 2 μL of 60% glycerol. Electrophoresis was performed at 100 V for 60 minutes on 0.8% agarose gel using 1×TBE. The band was observed after staining with SYBR™ Gold nucleic acid gel stain (Invitrogen, Waltham, USA).
After sonicating the peptide-molecule conjugate (SAB-gn, n=1 to 6) aqueous solution for 5 minutes, it was immediately mixed with an EGFP mRNA (200 μL) solution. […] An […] nanostructure was prepared as follows by mixing the peptide-molecule conjugate (SAB-gn, n=1 to 6) with the EGFP mRNA. […] The EGFP mRNA and the peptide-molecule conjugate (SAB-gn, n=1 to 6) were mixed at a charge ratio (+/−) of 0, 0.008, 0.016, 0.031, 0.063, 0.125, 0.25, 0.5, 1, 2, 4, 8, 16, 32 or 50.
After incubating the mixture solution overnight and centrifuging at 16,100 g for 30 minutes, the mixture was resuspended in deionized water. After washing twice, the resulting nanostructure was analyzed by EMSA.
After incubating the mixture solution overnight and centrifuging at 16,100 g for 30 minutes, the mixture was resuspended in deionized water.
After heating the mixed solution for 10 minutes at 70° C., it was immediately snap-cooled on ice. RiboRuler Low Range RNA Ladder and RiboRuler High Range RNA Ladder (Thermo Scientific, Waltham, USA) were used on the two lanes on the left side of agarose gel in order to identify the relative locations of the EGFP mRNA bands. The bands of the RiboRuler Low Range RNA Ladder correspond to 1000, 800, 600, 400, 300, 200 and 100 bases, from top to bottom, and the bands of the RiboRuler High Range RNA Ladder correspond to 6000, 4000, 3000, 2000, 1500, 1000, 500 and 200 bases, from top to bottom. Then, the mixtures with charge ratios (+/−) of 0, 0.031, 0.063, 0.125, 0.25, 0.5, 1, 2, 4, 8 and 16 were loaded in sequence.
After heating the mixed solution for 10 minutes at 70° C., it was immediately snap-cooled on ice. RiboRuler High Range RNA Ladder (Thermo Scientific, Waltham, USA) was used on the left side of agarose gel in order to identify the relative locations of the EGFP mRNA bands. The bands of the RiboRuler High Range RNA Ladder correspond to 6000, 4000, 3000, 2000, 1500, 1000, 500 and 200 bases, from top to bottom. Then, the samples were loaded with charge ratios (+/−) of 00, 0.063, 0.125, 0.25, 0.5, 1, 2, 4, 8, 16 and 32 in sequence.

The test system of assay [3] is ssDNA PolyT40. Nature of the assay: EMSA with ssDNA PolyT40. In kind it is binding.
Assay [4] has as its system ssDNA PolyT100.
Description: The concentration of the ssDNA was fixed and the concentration of the peptide-molecule conjugate aqueous solution was varied based on the nucleobase ratio.
After incubating the mixture of the peptide-molecule conjugate and ssDNA overnight, it was analyzed by EMSA.
Where [5] appears, read: 20 nM EGFP mRNA, 70° C. 10 minutes, snap-cooled.
[6] abbreviates: different nucleobase ratios (20-100).

Regarding “Ac-R-GS-UELUALEUELAULE-(Ahx)2-E (thymine)E (thymine)-(Ahx)2-KLUALKUKLAULKUG-K (glucose) [R-TT-Glc-U8]”, the “nanostructure formation (EMSA)” value in assay [1] (nucleobase ratio 60) is “successfully form”. For “Glucose-GS-UELUALEUELAULE-(Ahx)2-E (thymine)E (thymine)-(Ahx)2-KLUALKUKLAULKUG-K (glucose) [Glc2-TT-U8]”, the “nanostructure formation with EGFP mRNA (EMSA)” value in assay [2] is listed as “successfully forms the nanostructure”. For the substance “Glycolic acid-SGSG-C-GG-AUAUAUAUAUA-GG-R-GG-AUAUAUAUAUA-GG-C (cyclic; disulfide) [cyc-R(AU)A5-Ga]”, the “charge ratio (+/−) at which a complete nanostructure was formed” value (“charge ratio (+/−)” for short) in assay [2] (setting [5]) is on record as 16. Take “Glucose-GS-AELUALEUELAULE-(Ahx)2-K-(Ahx)2-KLUALKUKLAULKAG-K(^Nglucose)-NH2 [SAB-g6]”: in assay [2], the “+/− (optimum charge ratio of EGFP mRNA and conjugate showing completely delayed electrophoretic mobility)” value is on record as greater than 4. Still for that read-out and setting: then “Glucose-GS-AELAALEUELAALE-(Ahx)2-K-(Ahx)2-KLAALKUKLAALKAG-K(^Nglucose)-NH2 [SAB-g4]”, with 5. For the substance “Glycolic acid-SGSG-C-GG-AUAUAUAUAUA-GG-R-GG-AUAUAUAUAUA-GG-C (linear) [lin-R(AU)A5-Ga]”, the “charge ratio (+/−)” value in assay [2] (setting [5]) is on record as no less than 1.0.

As to “Glucose-GS-UELUALEUELAULE-(Ahx)2-E (adenine)E (adenine)-(Ahx)2-KLUALKUKLAULKUG-K (glucose) [Glc2-AA-U8]”, the “nanostructure formation (EMSA) after sonication or heating of conjugate” value in assay [1] (nucleobase ratios 20, 30 or 40, sonicated 5 minutes or heated at 90° C. 5 minutes) is reported as “successfully binding to ssDNA PolyT200”. For the same substance, the “nanostructure formation with EGFP mRNA (EMSA)” value in assay [2] (four conjugates used together (AA 6%, CC 21%, GG 26%, TT 47%), nucleobase ratio 1:1-1:15) is reported as “successfully forms the nanostructure”. Take “Ac-S-GS-UELUALEUELAULE-(Ahx)2-E (thymine)E (thymine)-(Ahx)2-KLUALKUKLAULKUG-K(PEG8) [S-TT-PEG8-U8]”: in assay [1] (setting [6]), the “nanostructure formation (EMSA)” value was “successfully form”. Take “Glucose-GS-AELUALEUELAULE-(Ahx)2-E (adenine)E (adenine)-(Ahx)2-KLUALKUKLAULKAG-K (glucose) [Glc2-AA-U6]”: in assay [1] (setting [6]), the “nanostructure formation (EMSA)” value is reported as “formed successfully”. For the substance “Glucose-GS-UELUALEUELAULE-(Ahx)2-E (cytosine)E (cytosine)-(Ahx)2-KLUALKUKLAULKUG-K (glucose) [Glc2-CC-U8]”, the “nanostructure formation with EGFP mRNA (EMSA)” value in assay [2] is reported as “successfully forms the nanostructure”.

With “Ac-R-GS-UELUALEUELAULE-(Ahx)2-E (thymine)E (thymine)-(Ahx)2-KLUALKUKLAULKUG-K(PEG8) [R-AA-PEG8-U8]”, in assay [1] (setting [6]), the “nanostructure formation (EMSA)” value is reported as “successfully form”. Consider “Ac-(PEG8)-AELAALEAELAALE-(Ahx)2-E (adenine)-(Ahx)2-KLAALKAKLAALKAG-(PEG8) [PEG82-A-U0]”, for which, in assay [3] (nucleobase ratio 640), the “electrophoretic mobility (EMSA)” value is reported as “delayed slightly”. Consider “Glucose-GS-AELAALEAELAALE-(Ahx)2-E (thymine)-E (thymine)-(Ahx)2-KLAALKAKLAALKAG-GS [Glc1-TT-U0]”, for which the “electrophoretic mobility (EMSA)” value in assay [4] (nucleobase ratio 80:1) is listed as “no electrophoretic mobility was observed”. Consider “Ac-R-GS-UELUALEUELAULE-(Ahx)2-E (adenine)E (adenine)-(Ahx)2-KLUALKUKLAULKUG-K (glucose) [R-AA-Glc-U8]”, for which the “nanostructure formation (EMSA)” value in assay [1] (nucleobase ratio 60) is given as “successfully form”.

As to “Glucose-GS-AELUALEAELAULE-(Ahx)2-K-(Ahx)2-KLUALKAKLAULKAG-K(^Nglucose)-NH2 [SAB-g5]”, the “+/− (optimum charge ratio of EGFP mRNA and conjugate showing completely delayed electrophoretic mobility)” value in assay [2] was determined as 10. “Ac-(PEG8)-AELAALEAELAALE(Ahx)2-E (adenine)E (adenine)-(Ahx)2-KLAALKAKLAALKAG-(PEG8) [PEG82-AA-U0]”: in assay [3] (nucleobase ratio 1280:1, compared with Example 12), the “electrophoretic mobility (EMSA)” value is listed as “delayed relatively more”.

With “Glucose-GS-AELAALEAELAALE-(Ahx)2-K-(Ahx)2-KLAALKAKLAALKAG-K(^Nglucose)-NH2 [SAB-g3]”, in assay [2], the “+/− (optimum charge ratio of EGFP mRNA and conjugate showing completely delayed electrophoretic mobility)” value is listed as 0.25; the Hill coefficient was 4.6; the “half-saturation constant KSAB-g3” value is reported as 0.152. “Glucose-GS-AELAALEAELAALE-(Ahx)2-E (adenine)-E (adenine)-(Ahx)2-KLAALKAKLAALKAG-GS [Glc1-AA-U0]”: the “electrophoretic mobility (EMSA)” value in assay [4] (nucleobase ratio 40:1, compared with Example 15) is “delayed relatively more”; in assay [4] (nucleobase ratio 80:1), “delayed completely”. “Glucose-SGSG-C-GG-AUAUAUAUAUA-GG-R-GG-AUAUAUAUAUA-GG-C (cyclic; disulfide) [SAB #31]”: in assay [2], the “EMSA bands of EGFP mRNA” value was “bands of the EGFP mRNA weaken gradually with the increase of charge ratio”. As to “Glucose-SGSG-C-GG-AUAUAUAUAUA-GG-R-GG-AUAUAUAUAUA-GG-C (linear) [#30]”, the “charge ratio (+/−)” value in assay [2] is listed as no less than 8. Consider “Glucose-(PEG8)-AELAALEAELAALE-(Ahx)2-K-(Ahx)2-KLAALKAKLAALKAG-(PEG8)-K(^Nglucose)-NH2 [SAB-g2]”, for which, in assay [2], the “+/− (optimum charge ratio of EGFP mRNA and conjugate showing completely delayed electrophoretic mobility)” value is given as greater than 30.

For the substance “Glucose-GS-UELUALEUELAULE-(Ahx)2-E (guanine)E (guanine)-(Ahx)2-KLUALKUKLAULKUG-K (glucose) [Glc2-GG-U8]”, the “nanostructure formation with EGFP mRNA (EMSA)” value in assay [2] is “successfully forms the nanostructure”. Regarding “Glucose-(PEG8)-AELAALEAELAALE-(Ahx)2-K-(Ahx)2-KLAALKAKLAALKAG-(PEG8)-NH2 [SAB-g1]”, the “+/− (optimum charge ratio of EGFP mRNA and conjugate showing completely delayed electrophoretic mobility)” value in assay [2] amounted to 20. As for “Glucose-GS-AELUALEAELAULE-(Ahx)2-E (adenine)E (adenine)-(Ahx)2-KLUALKAKLAULKAG-K (glucose) [Glc2-AA-U4]”, in assay [1] (setting [6]), the “nanostructure formation (EMSA)” value was “formed successfully”.

For the substance “Glucose-GS-AELAALEUELAALE-(Ahx)2-E (adenine)E (adenine)-(Ahx)2-KLAALKUKLAALKAG-K (glucose) [Glc2-AA-U2]”, in assay [1] (setting [6]), the “nanostructure formation (EMSA)” value is “formed successfully”. On the same count and under the same terms, then “Ac-R-GS-UELUALEUELAULE-(Ahx)2-E (thymine)E (thymine)-(Ahx)2-KLUALKUKLAULKUG-K(PEG8)2 [R-TT-PEG82-U8]”, with “successfully form”.

The term Hill coefficient denotes the slope factor of the fitted curve.
